Assay results as given in patent US20090311198A1, “Perhydrolase for Tooth Whitening” (priority 2006, published 2009).
Marks after values point to notes of the source that are not given here.

How the values were obtained:
[1] = Intrinsic stain removal (tooth whitening) on human enamel specimens, CIELAB colour readings; details: for Total Change (ΔE) in Intrinsic Stain Scores: 20 ml, 30 minute intervals, mean ± SD, n = 8; for Dose-response of tooth whitening (ΔE): 0.20% to 0.01% solutions
Description: In the following Examples, human permanent teeth with natural intrinsic stains were obtained from oral surgeons. Selection of appropriate teeth was based on the presence of intrinsic stain after removal of exogenous stains using methods known in the art involving use of rubber cup polishing with an aqueous pumice slurry. A VITA® dental shade guide was used as a reference for tooth selection. Only specimens with a shade score of A3 or darker after drying were used in these experiments. The test specimens were comprised of cylinders of human enamel 3 mm in diameter mounted in a 10-mm-diameter black acrylic base. The circular pieces of human enamel were cut using a 3-mm diamond core drill (Continental). In order to cut the enamel, the human teeth were first mounted in 2-cm square blocks of self-curing dental acrylic with the labial surface exposed. Each block was then clamped into a small vise and immersed in a container of water to prevent the enamel from burning during the cutting process. Each immersed tooth was positioned directly under and perpendicular to the diamond core drill bit mounted on the end of an electric drill press. At high speed, the diamond core drill was lowered onto the tooth and gentle pressure was applied as the bit cut through the enamel and dentin. The 3-mm piece of cut enamel was then removed from the end of the diamond core drill and embedded with the aid of a circular mold into black, self-curing dental acrylic, providing circular blocks 10 mm in diameter. This was done in such a manner that the areas of tooth substance exposed by the drilling process were sealed by the acrylic, while the 3-mm surface enamel was left exposed. The finished tooth specimens were examined under a dissecting microscope. Specimens with imperfections were discarded. Acceptable specimens were thoroughly rinsed with distilled water, and refrigerated in a humidor until use.
In these experiments, stain on the teeth was measured using the following method. The amount of the intrinsic stain within the teeth was measured by taking color readings with a Minolta CM-503i Spectrophotometer with diffuse illumination/8° viewing angle and 3 mm aperture. Measurements over the entire visible color spectrum were obtained using the CIELAB (Commission Internationale de L'Eclairage, Recommendations on Uniform Color Spaces. Color Difference Equations. Psychometric color Terms, Suppl. 2 to CIE publication 15 (E-13.1) 1971/(TC-1.3), 1978, Paris: Bureau Central de la CIE, 1978) color scale. This scale quantifies color according to 3 parameters, L* (lightness-darkness value), a* (red-green chroma), and b* (yellow-blue chroma). In order to obtain reproducible readings, the enamel specimens were allowed to air-dry at room temperature for 30 minutes before color measurements were taken. When the specimens were exposed to air, the teeth became whiter as they dry within the first few minutes and the color parameters change dramatically, but stabilized after 30 minutes.
Measurements were obtained by aligning the center of the circular 3-mm segment of enamel directly over the 3-mm-diameter targeting aperture of the Minolta spectrophotometer, which enabled accurate positioning of the specimens for each test. An average of 3 color readings using the L*a*b* scale were taken for each specimen.
In this Example, methods of treating the tooth samples are described. Before treatment, the baseline L*a*b* color scores of the tooth specimens were determined and used to stratify the teeth samples into balanced groups of 8 specimens each. For testing, each tooth specimen was immersed in 20 ml of the respective test solution for 30 minutes. The test solutions were stirred at 60 rpm with a mechanical stirrer for the duration of the exposure.
Following each 30-minute treatment period, the specimens were rinsed and then placed back into fresh test solution. […] As a control group, 8 teeth were similarly treated in distilled water. […]

[2] = Hydrolysis of PAA standards in buffer (ABTS assay standard curve); type: physicochemical; details: B(OH)3 buffer; standard concentrations in B(OH)3, pH 8.5 buffer
Procedure: The standard curve was prepared as described below. A working stock of PAA was prepared by diluting 32% 10^4-fold to 0.4 mM in water (note: stock contained acetic acid). […] At ambient temperature, 50 to 100 uL of standard PAA dilution were added to 1 mL of the ABTS reagent. The solution was mixed well and incubated at ambient temperature for 3 minutes. The absorbance at 420 nm (or another chosen wavelength) was then measured.

[3] = aqueous 1% (by weight) solution; ambient to oral range temperatures; cited from earlier work
[4] = dilute 1% aqueous solution, cited from earlier work

OO [H2O2, hydrogen peroxide]
Total Change (ΔE) in Intrinsic Stain Scores ([1]; 3% (positive control), Hour 1): 6.21 ± 3.46^a | Total Change (ΔE) in Intrinsic Stain Scores ([1]; 3% (positive control), Hour 2): 7.15 ± 2.96^a | Total Change (ΔE) in Intrinsic Stain Scores ([1]; 3% (positive control), Hour 4): 7.28 ± 2.75^a | Total Change (ΔE) in Intrinsic Stain Scores ([1]; 3% (positive control), Hour 8): 7.48 ± 2.95^a | Total Change (ΔE) in Intrinsic Stain Scores ([1]; 3% (positive control), Hour 10): 7.77 ± 3.34^a | Total Change (ΔE) in Intrinsic Stain Scores ([1]; 3% (positive control), Hour 12): 9.00 ± 4.07^a | Total Change (ΔE) in Intrinsic Stain Scores ([1]; 3% (positive control), Hour 14): 9.68 ± 3.85^a | Total Change (ΔE) in Intrinsic Stain Scores ([1]; 3% (positive control), Hour 16): 10.68 ± 3.51^a

CC(=O)OO [Peracetic Acid, peracetic acid]
half-life [2]: 25 min | Whitening effect on teeth compared with 30% (by weight) aqueous hydrogen peroxide [3]: faster and superior whitening effect | Time to substantial decomposition ([4]; ambient temperatures): ≥ 30 days | Storage stability ([4]; storage at 3° C.): significantly improves stability | Total Change (ΔE) in Intrinsic Stain Scores ([1]; 0.01% in 100 mmolar phosphate buffer, Hour 1): 2.98 ± 2.57^b,c,d | Total Change (ΔE) in Intrinsic Stain Scores ([1]; 0.01% in 100 mmolar phosphate buffer, Hour 2): 4.06 ± 2.51^b | Total Change (ΔE) in Intrinsic Stain Scores ([1]; 0.01% in 100 mmolar phosphate buffer, Hour 4): 4.09 ± 2.33^b | Total Change (ΔE) in Intrinsic Stain Scores ([1]; 0.01% in 100 mmolar phosphate buffer, Hour 8): 5.11 ± 2.71^a | Total Change (ΔE) in Intrinsic Stain Scores ([1]; 0.01% in 100 mmolar phosphate buffer, Hour 10): 5.88 ± 2.55^a | Total Change (ΔE) in Intrinsic Stain Scores ([1]; 0.01% in 100 mmolar phosphate buffer, Hour 12): 6.79 ± 3.23^a | Total Change (ΔE) in Intrinsic Stain Scores ([1]; 0.01% in 100 mmolar phosphate buffer, Hour 14): 7.13 ± 3.14^a | Total Change (ΔE) in Intrinsic Stain Scores ([1]; 0.01% in 100 mmolar phosphate buffer, Hour 16): 7.57 ± 3.05^a | Total Change (ΔE) in Intrinsic Stain Scores ([1]; 0.05% in 100 mmolar phosphate buffer, Hour 1): 3.41 ± 2.19^b,c,d | Total Change (ΔE) in Intrinsic Stain Scores ([1]; 0.05% in 100 mmolar phosphate buffer, Hour 2): 3.83 ± 1.81^b | Total Change (ΔE) in Intrinsic Stain Scores ([1]; 0.05% in 100 mmolar phosphate buffer, Hour 4): 4.72 ± 1.67^b | Total Change (ΔE) in Intrinsic Stain Scores ([1]; 0.05% in 100 mmolar phosphate buffer, Hour 8): 5.04 ± 1.72^a | Total Change (ΔE) in Intrinsic Stain Scores ([1]; 0.05% in 100 mmolar phosphate buffer, Hour 10): 6.08 ± 1.25^a | Total Change (ΔE) in Intrinsic Stain Scores ([1]; 0.05% in 100 mmolar phosphate buffer, Hour 12): 6.55 ± 1.79^a | Total Change (ΔE) in Intrinsic Stain Scores ([1]; 0.05% in 100 mmolar phosphate buffer, Hour 14): 6.82 ± 1.91^a | Total Change (ΔE) in Intrinsic Stain Scores ([1]; 0.05% in 100 mmolar phosphate buffer, Hour 16): 7.72 ± 2.15^a | Total Change (ΔE) in Intrinsic Stain Scores ([1]; 0.10% in 100 mmolar phosphate buffer, Hour 1): 5.60 ± 2.69^a,b | Total Change (ΔE) in Intrinsic Stain Scores ([1]; 0.10% in 100 mmolar phosphate buffer, Hour 2): 5.38 ± 1.75^a,b | Total Change (ΔE) in Intrinsic Stain Scores ([1]; 0.10% in 100 mmolar phosphate buffer, Hour 4): 6.09 ± 2.52^a,b | Total Change (ΔE) in Intrinsic Stain Scores ([1]; 0.10% in 100 mmolar phosphate buffer, Hour 8): 6.58 ± 2.94^a | Total Change (ΔE) in Intrinsic Stain Scores ([1]; 0.10% in 100 mmolar phosphate buffer, Hour 10): 7.05 ± 3.31^a | Total Change (ΔE) in Intrinsic Stain Scores ([1]; 0.10% in 100 mmolar phosphate buffer, Hour 12): 7.89 ± 3.47^a | Total Change (ΔE) in Intrinsic Stain Scores ([1]; 0.10% in 100 mmolar phosphate buffer, Hour 14): 8.71 ± 4.66^a | Total Change (ΔE) in Intrinsic Stain Scores ([1]; 0.10% in 100 mmolar phosphate buffer, Hour 16): 9.08 ± 4.24^a | Total Change (ΔE) in Intrinsic Stain Scores ([1]; 0.20% in 100 mmolar phosphate buffer, Hour 1): 5.31 ± 1.75^a,b,c | Total Change (ΔE) in Intrinsic Stain Scores ([1]; 0.20% in 100 mmolar phosphate buffer, Hour 2): 6.60 ± 2.37^a | Total Change (ΔE) in Intrinsic Stain Scores ([1]; 0.20% in 100 mmolar phosphate buffer, Hour 4): 7.37 ± 2.85^a | Total Change (ΔE) in Intrinsic Stain Scores ([1]; 0.20% in 100 mmolar phosphate buffer, Hour 8): 7.54 ± 2.34^a | Total Change (ΔE) in Intrinsic Stain Scores ([1]; 0.20% in 100 mmolar phosphate buffer, Hour 10): 7.72 ± 3.12^a | Total Change (ΔE) in Intrinsic Stain Scores ([1]; 0.20% in 100 mmolar phosphate buffer, Hour 12): 8.53 ± 3.65^a | Total Change (ΔE) in Intrinsic Stain Scores ([1]; 0.20% in 100 mmolar phosphate buffer, Hour 14): 9.08 ± 3.81^a | Total Change (ΔE) in Intrinsic Stain Scores ([1]; 0.20% in 100 mmolar phosphate buffer, Hour 16): 9.34 ± 4.10^a | Tooth whitening (ΔE) compared with hydrogen peroxide positive control ([1]; after 8 hours, ANOVA and SNK test, p < 0.05): statistically equivalent to the hydrogen peroxide positive control | Dose-response of tooth whitening (ΔE) ([1]; during the first four hours of treatment): significant dose-response | Dose-response of tooth whitening (ΔE) ([1]; up to 16 hours of treatment): numerical dose-response effect
